ChEMBL document CHEMBL4007494, “Structural Basis of Small-Molecule Aggregate Induced Inhibition of a Protein-Protein Interaction” (J Med Chem, 2017)
Calls of active or inactive are those of the source. The calls are words filed in the database; no cut-off is given here.

What was measured:
Tumor necrosis factor [1] = target: T1, Tumor necrosis factor (Homo sapiens, UniProt P01375); assay: Binding affinity to human TNF-alpha soluble domain assessed as decrease in complex formation with human TNFR1 extracellular domain preincubated for 1 hr followed by receptor addition measure after 2 hrs by TR-FRET assay
T1 sequence (P01375 whole entry, the tested form may be a part): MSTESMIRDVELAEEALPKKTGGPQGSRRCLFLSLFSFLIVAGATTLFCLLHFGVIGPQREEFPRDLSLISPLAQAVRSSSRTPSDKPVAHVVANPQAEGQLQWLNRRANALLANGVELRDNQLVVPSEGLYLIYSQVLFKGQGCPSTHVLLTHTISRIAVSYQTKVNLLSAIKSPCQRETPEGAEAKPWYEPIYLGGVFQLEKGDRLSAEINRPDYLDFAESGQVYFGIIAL

[2] = Critical aggregation concentration assessed as formation of aggregate after 30 mins by light scattering method
Tumor necrosis factor [3] = target: T1, Tumor necrosis factor; assay: Binding affinity to human TNF-alpha soluble domain assessed as decrease in complex formation with human TNFR2 extracellular domain preincubated for 1 hr followed by receptor addition measure after 2 hrs by TR-FRET assay
[4] = Critical aggregation concentration assessed as formation of aggregate after 30 mins in presence of triton X-100 by light scattering method
Tumor necrosis factor [5] = target: T1, Tumor necrosis factor; conditions: 50 uM
Description: Binding affinity to human TNF-alpha soluble domain assessed as sedimentation velocity constant s20,w at 50 uM after 3 hrs by ultracentrifugation method

Row | Structure (SMILES) | IC50 (Tumor necrosis factor [1]) [nM] | CAC [2] | IC50 (Tumor necrosis factor [3]) [nM] | CAC [4] | S20,w (Tumor necrosis factor [5])
1 | Nc1nccc(N(Cc2ccccc2)c2ccccc2-c2cccc(-c3cnc(N4CCNCC4)nc3)c2)n1 | 1200 | 1 µM | 1100 | inactive | 3.09
2 | Clc1ccc(COC(Cn2ccnc2)c2ccc(Cl)cc2Cl)c(Cl)c1 (stereo not drawn) |  | Dose-dependent effect |  | inactive | 
3 | Cc1cc2occ(CN(C)CCN(C)Cc3cn(-c4cccc(C(F)(F)F)c4)c4ccccc34)c(=O)c2cc1C |  | 10 µM |  |  | 
